# How the values were obtained:
# [1] = Deodorization effect on lower fatty acid (sensory evaluation); settings: 150 mg of 1% aqueous lower fatty acid mixture 20/60/20; after 20 minutes; grades 0 to 3 (initial odor = 3), average of three examiners
# [2] = Deodorization effect on mercaptan (sensory evaluation, filter paper in beaker); settings: 150 mg base agent, 50 mg 0.0002% methylmercaptan in propylene glycol; after 20 minutes; grades 0 to 3 (initial odor = 3), average of three examiners
# Experimental: Filter paper having a length of 7 cm and a width of 0.5 cm was impregnated with 150 mg of a deodorant base agent, subsequently, the same filter paper was impregnated with 50 mg of a 0.0002% solution of methylmercaptan in propylene glycol. The filter paper was placed in erected condition in a 3 liter beaker and wrapping film was covered on it and left for 20 minutes, then, a odor filling the beaker was subjected to sensory evaluation. The strength of the odor of methylmercaptan at the initial was defined as 3, and odors after 20 minutes were evaluated by three examiners based on four grades from 0 to 3, and the average value thereof was calculated and the first decimal was rounded off to give a deodorization effect.
# [3] = Deodorization effect on ammonia odor (dessicator, Kitagawa type gas detector); settings: 250 mg base agent, 50 mg of 1% ammonia aqueous solution, 2.5 liter dessicator, 20 minutes; relative to blank 1
# Experimental: Into a schale having a diameter of 4 cm was added 250 mg of the deodorant base agents obtained in Reference Examples 1 and 2, and 50 mg of a 1% ammonia aqueous solution was dropped thereon. The above-mentioned schale was allowed to stand still in a 2.5 liter dessicator for 20 minutes, then, the ammonia concentration (S) was measured by a Kitagawa type gas detector. Further, a schale containing no deodorant base agent was used as a blank 1 and a schale containing 250 mg of water added instead of a deodorant base agent was used as a blank 2, and the ammonia concentration was measured likewise. The ammonia concentration of the blank 1 was represented by C, and the deodorization rate was calculated according to the following formula. As Comparative Example 1, the deodorization effect on an ammonia odor was measured likewise in Example 1 using 250 mg of a solution obtained by dissolving 28 g (0.116 mol) of lauryl methacrylate which is a known deodorant base agent in 115 g of diethylene glycol monoethyl ether.
# (Measurement Method of Deodorization Ratio)
# Deodorization rate (%)=[(C−S)/C]×100
# S: ammonia gas concentration after 20 minutes (ppm)
# C: ammonia gas concentration of blank 1 (ppm)
# [4] = acid dissociation index (pK1, pK2) at 25° C.; assay type: physicochemical; settings: for first acid dissociation index / second acid dissociation index: for the dibasic acid, source of value not given
# Experimental: The organic dibasic acid used as a deodorant in the present invention is selected from organic dibasic acids and/or salts thereof having a difference between the first acid dissociation index and the second acid dissociation index of 1.7 or more at 25° C. (hereinafter, described as deodorant organic dibasic acid). The acid dissociation index can be measured, for example, by a method (A) described in The Journal of Physical Chemistry vol.
# Further, previously obtained data may also be used. […] Further, the organic dibasic acid can be selected based on data bases (D) such as pKa BASE of Compudrug, and the like. The first acid dissociation index and the second acid dissociation index of the organic dibasic acid may be determined by any of the methods (A) to (D).
first acid dissociation index [4],second acid dissociation index [4],difference of acid dissociation index ([4]; given in running text),SMILES,Evaluation of odor [1],Evaluation of odor [2],Deodorization rate [3]
,,,"C=C(C)C(=O)OCCCCCCCCCCCC [Comparative Example 1, lauryl methacrylate, reference compound]",2,3,10%
4.00,5.25,less than 1.7,"O=C(O)CCC(=O)O [Comparative Example 2, succinic acid, reference compound]",2,3,33%
,,,"O=C(O)[C@H]1CCCC[C@H]1C(=O)O [Deodorant base agent 1, cis-cyclohexane-1,2-dicarboxylic acid]",1,2,79%
4.16,6.23,,"O=C1OC(=O)C2C3C=CC(C3)C12 (centres unmarked) [Deodorant base agent 2, 5-norbornene-2,3-dicarboxylic acid anhydride]",1,1,88%

# Reference: US6780403B1, “Deodorants” (Kao Corporation, priority 1999, dated 2004)
